Earlier results in US9937154B2, “Use of telmisartan to prevent and treat graft versus host disease and other alloimmune and autoimmune diseases” (Hackensack University Medical Center, priority 2015, dated 2018).
Read-outs that look alike come from different tables or passages of the source.

Experiments:
ROCK = conditions: cited from earlier work
[1] = cited from earlier work
lymphocyte chemotaxis = conditions: in part SDF-1 induced chemotaxis; cited from earlier work
[2] = test system: patients treated with MICARDIS; conditions: cited from earlier work
[3] = 80 or 160 mg per day; cited from earlier work
cytochrome P450 enzymes = conditions: cited from earlier work
[4] = test system: plasma proteins, mainly albumin and orosomucoid; conditions: cited from earlier work
[5] = test system: patients with mild to moderate hypertension; conditions: cited from earlier work
rat colitis = conditions: chemically induced acute colitis, cited from earlier work
[6] = cited from earlier work; remark: listed apart in the source
[7] = test system: Tregs:autoreactive Th17 cells; conditions: cited from earlier work
CYP2C19 = CYP2C19 (Homo sapiens, UniProt P33261); conditions: in vitro; cited from earlier work
Chain of CYP2C19 (P33261 whole entry): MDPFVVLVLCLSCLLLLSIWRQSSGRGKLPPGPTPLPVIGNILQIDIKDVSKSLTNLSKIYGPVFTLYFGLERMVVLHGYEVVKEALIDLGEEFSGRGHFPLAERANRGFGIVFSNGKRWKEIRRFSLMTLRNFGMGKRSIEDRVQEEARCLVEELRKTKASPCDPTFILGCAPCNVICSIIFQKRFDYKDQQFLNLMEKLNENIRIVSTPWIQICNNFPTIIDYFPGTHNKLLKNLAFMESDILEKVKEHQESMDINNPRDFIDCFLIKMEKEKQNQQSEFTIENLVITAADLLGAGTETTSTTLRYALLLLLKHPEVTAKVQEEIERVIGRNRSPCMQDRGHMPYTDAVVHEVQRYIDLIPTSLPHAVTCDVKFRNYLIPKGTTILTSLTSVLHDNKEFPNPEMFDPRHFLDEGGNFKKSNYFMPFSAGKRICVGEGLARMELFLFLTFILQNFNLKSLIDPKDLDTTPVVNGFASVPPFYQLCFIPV

[8] = test system: corneal neovascularization; conditions: corneal systems; cited from earlier work

Compound: CCCc1nc2c(C)cc(-c3nc4ccccc4n3C)cc2n1Cc1ccc(-c2ccccc2C(=O)O)cc1 [Telmisartan, telmisartan]
- potency as ROCK inhibitor compared with Y-27632 (ROCK): as potent an inhibitor of ROCK as Y-27632
- reduction in AUC by food ([1]; 40 mg tablet): about 6%
- reduction in AUC by food ([1]; 160 mg dose): about 20%
- terminal elimination half-life ([1]; in vivo): approximately 24 hours
- volume of distribution ([1]; in vivo): approximately 500 liters
- lymphocyte chemotaxis (lymphocyte chemotaxis): abrogate lymphocyte chemotaxis
- incidence of cough ([2]; 6 placebo-controlled trials, identical to placebo): 1.6%
- incidence of back pain ([2]; n = 1455): 3%
- incidence of diarrhea ([2]; n = 1455): 3%
- incidence of pharyngitis ([2]; n = 1455): 1%
- incidence of sinusitis ([2]; n = 1455): 3%
- incidence of upper respiratory tract infection ([2]; n = 1455): 7%
- discontinuation of therapy because of adverse events ([2]; of 1455 patients, placebo-controlled clinical trials): 2.8%
- incidence of reported poor tolerability [3]: 0.5%
- metabolism by the cytochrome P450 system (cytochrome P450 enzymes): not metabolized
- effects in vitro on cytochrome P450 enzymes (cytochrome P450 enzymes; except CYP2C19): no effects
- bound to plasma proteins [4]: > 99.5%
- DBP reduction from baseline after placebo subtraction ([5]; 20 mg once daily): ~6 mm Hg
- SBP reduction from baseline after placebo subtraction ([5]; 20 mg once daily): 6-8 mm Hg
- DBP reduction from baseline after placebo subtraction ([5]; 40 mg once daily): 6-8 mm Hg
- SBP reduction from baseline after placebo subtraction ([5]; 40 mg once daily): 9-13 mm Hg
- DBP reduction from baseline after placebo subtraction ([5]; 80 mg once daily): 7-8 mm Hg
- SBP reduction from baseline after placebo subtraction ([5]; 80 mg once daily): 12-13 mm Hg
- time to maximal blood pressure reduction ([5]; after initiation of treatment): ~4 weeks
- incidence of symptomatic orthostasis ([5]; after the first dose, all controlled trials): 0.04%
- effect on colitis (rat colitis; listed as telmisartan): anti-inflammatory effects
- effect on colitis (rat colitis): protective effect against rat colitis
- amount found in urine ([6]; intravenous administration): 0.91 % of total radioactivity
- administered dose eliminated unchanged in feces via biliary excretion ([6]; intravenous or oral 14C-labeled telmisartan): > 97%
- amount found in urine ([6]; oral administration): 0.49 % of total radioactivity
- ratio of protective Tregs:autoreactive Th17 cells [7]: increase the ratio
- inhibition of CYP2C19 (CYP2C19): some inhibition
- neovascularization [8]: prevent neovascularization
